{"source": "patent US20260183305A1", "about": "“METHYLENE BLUE FOR USE IN THERAPY OF HEPATITIS B AND/OR HEPATITIS D INFECTION” (priority 2022, published 2026)", "key": {"[1]": {"tested_on": "HDV", "assay": "MB HDV inhibition assay (HDV RNA by RT-qPCR) on HepNB2.7 cells", "format": "cell-based, Hepatitis D Virus", "experimental": "(§1) HepG2-NTCP or HepNB2.7 cells were infected with different titers of HDV (10, 50 MOI) and treated with 2.5 or 1.25 μg/ml of MB for 5 hours.\n(§2) HepG2-NTCP and HepNB2.7 cells (plated at 10×10^3 cells/well) were infected with 10 or 50 MOI of HDV using PEG (polyethylene glycol) 4% overnight as previously described (Alfaiate D, Lucifora J et al.; cf. above). MB (2.5 or 1.25 μg/ml) was added 16 hrs post HDV infection for 5 h and cells were incubated at room temperature in the dark. Three and six days post infection, RNA was extracted and HDV RNA level was monitored by RT-qPCR in order to determine HDV replication as described below. For HepNB2.7, the level of HBsAg in the supernatant were measured as described below.\n(§3) Total intracellular RNA was extracted using the Nucleospin RNA Kit (Macherey-Nagel AG). cDNA was synthesized from 100 ng total RNA using Superscript II and random hexamer primers (Roche Diagnosis). Quantification of HDV was performed by qRT-PCR as described (Alfaiate D, Lucifora J et al), using the primers described by Scholtes & colleagues (Scholtes C, Icard V, Amiri M et al; “Standardized one-step real-time reverse transcription-PCR assay for universal detection and quantification of hepatitis delta virus from clinical samples in the presence of a heterologous internal-control RNA.” J Clin Microbiol 2012;50:2126-2128.) and EEF1A1 as housekeeping gene.\n(§4) HepG2-NTCP or HepNB2.7 cells were infected with different titers of HDV (10, 50, 100 MOI) and treated with 2.5 or 1.25 μg/ml of MB for 5 hours. Cells were analyzed at day 3 or day 6 post-infection and HDV replication was assessed by RT-PCR. For HepNB2.7, the level of HBsAg in the supernatant were measured at both time points.\nThe inhibitory effect of MB on HDV replication on HepNB2.7 cells was investigated. In a first experiment cells infected with either 10 or 50 MOI were treated with MB (2.5 or 1.25 μg/ml) and HDV replication was assessed at 3 days, or 6 days, post infection."}, "[2]": {"tested_on": "Influenza N1H1 virus", "details": "in vitro, hermetically closed box; cited from earlier work"}, "[3]": {"tested_on": "HepNB2.7 cells", "assay": "MTT cell viability assay, cytotoxicity of MB on HepNB2.7", "format": "cell-based", "details": "HepNB2.7, MTT"}, "[4]": {"details": "transplacental exposure, mouse; cited from earlier work"}, "[5]": {"details": "after oral administration; cited from earlier work"}, "[6]": {"details": "Brazilian children, long periods of time; cited from earlier work"}, "[7]": {"tested_on": "HBV surface antigen (HBsAg)", "assay": "HBsAg measurement by ELISA in supernatant of HDV infected HepNB2.7 cells", "format": "cell-based, Hepatitis B Virus", "experimental": "as §2\nFor HepNB2.7, the level of HBsAg in the supernatant were measured at both time points by ELISA (Enzyme-Linked Immosorbent Assay, ABBOTT PRISM® HBsAg) according to the protocol of the manufacturer.\nas §4\nIn a second experiment the secretion of the HBV surface antigen (HBsAg) was measured in the supernatant of cells infected with 10, 50 or 100 MOI and treated with MB (2.5 or 1.25 μg/ml)."}, "[8]": {"tested_on": "HDV", "assay": "MB HDV inhibition assay (HDV RNA by RT-qPCR) on HepG2-NTCP cells", "format": "cell-based, Hepatitis D Virus", "details": "MB 2.5 or 1.25 μg/mL; for HDV RNA concentration: HepG2-NTCP", "experimental": "as §1, §2, §3, §4\nThe inhibitory effect of MB on HDV replication on HepG2-NTCP cells was investigated. Cells infected with either 10 or 50 MOI of virus were treated with MB (2.5 or 1.25 μg/ml) and HDV replication was assessed at 3 days (A) or 6 days (B) post infection."}, "[9]": {"details": "5 mg/ml solution for injection; cited from earlier work"}, "[10]": {"tested_on": "SARS-COV-2", "details": "in vitro, hermetically closed box; cited from earlier work"}}, "note": "“Also recorded” adds a separate entry of the source."}
{"smiles": "CN(C)c1ccc2nc3ccc(N(C)C)cc3[s+]c2c1.[Cl-]", "note": "[MB, [7-(dimethylamino)phenothiazin-3-ylidene]-dimethylazanium, chloride]", "values": [{"measurement": "HDV replication signal", "setting": "[1]; HepNB2.7, 10 MOI, day 3 and 6", "value": "weak signal"}, {"measurement": "effect of MB on viral reproduction (HDV replication)", "setting": "[1]; HepNB2.7, 50 MOI, day 6 post infection, MB 2.5 or 1.25 μg/ml", "value": "dose related effect"}, {"measurement": "viral markers under long-term treatment (extrapolated)", "setting": "[1]; long-term treatment (weeks instead of days), cell lines, no data shown", "value": "complete disappearance of viral markers"}, {"measurement": "antiviral efficacy in the total dark", "setting": "[2]", "value": "strong antiviral efficacy"}, {"measurement": "long-term cytotoxic effect (percentage of viability)", "setting": "[3]; 3 days after incubation with different concentrations of MB", "value": "significant toxicity"}, {"measurement": "cytotoxic effect of MB in the presence of light as compared to dark", "setting": "[3]; dark vs photoactivated under visible light, 3 days after incubation", "value": "not significantly enhanced"}, {"measurement": "teratogenicity", "setting": "[4]", "value": "teratogenic"}, {"measurement": "bioavailability", "setting": "[5]", "value": 72, "unit": "%"}, {"measurement": "elimination half-life", "setting": "[5]", "value": 18, "unit": "h"}, {"measurement": "dose tolerated very well", "setting": "[6]", "value": "20-50 mg/kg per day"}, {"measurement": "secretion of the HBV surface antigen (HBsAg) in the supernatant", "setting": "[7]; HepNB2.7 infected with 10, 50 or 100 MOI HDV, MB 2.5 or 1.25 μg/ml, all conditions tested", "value": "diminished secretion; also recorded: clear-cut dose/response relationship"}, {"measurement": "antiviral effect of MB over time", "setting": "[7]; results on day 3 and 6", "value": "accumulates over time"}, {"measurement": "HDV RNA concentration", "setting": "[8]; 10 MOI", "value": "too low to distinguish the antiviral impact of MB"}, {"measurement": "HDV RNA concentration", "setting": "[8]; 50 MOI, 3 and 6 days post infection", "value": "clear dose response relationship"}, {"measurement": "antiviral effect of MB against HDV infected HepG2-NTCP cells", "setting": "[8]; physiological drug concentrations", "value": "significant antiviral effect"}, {"measurement": "compatibility with 0.9% saline solution", "setting": "[9]", "value": "not compatible"}, {"measurement": "compatibility with 5% glucose or 5% dextrose solution", "setting": "[9]", "value": "compatible"}, {"measurement": "antiviral efficacy in the total dark", "setting": "[10]", "value": "strong antiviral efficacy"}]}
